Test results as given in the NIST ThermoML archive (doi:10.1021/je060271a).
Numbers after ± are expanded uncertainties.

Settings: 323.15 K, Liquid, Vibrating tube method

## CCCCC(=O)OCC(COC(=O)CCCC)(COC(=O)CCCC)COC(=O)CCCC [pentaerythritol tetrapentanoate]
20383 kPa
  mass density: 1008.5 ± 1.2 kg/m3
20411 kPa
  mass density: 1008.4 ± 1.2 kg/m3
20440 kPa
  mass density: 1008.5 ± 1.2 kg/m3
20474 kPa
  mass density: 1008.4 ± 1.2 kg/m3
20502 kPa
  mass density: 1008.4 ± 1.2 kg/m3
20532 kPa
  mass density: 1008.5 ± 1.2 kg/m3
20561 kPa
  mass density: 1008.5 ± 1.2 kg/m3
20596 kPa
  mass density: 1008.5 ± 1.2 kg/m3
20625 kPa
  mass density: 1008.6 ± 1.2 kg/m3
20659 kPa
  mass density: 1008.6 ± 1.2 kg/m3
20689 kPa
  mass density: 1008.5 ± 1.2 kg/m3
20718 kPa
  mass density: 1008.6 ± 1.2 kg/m3
20747 kPa
  mass density: 1008.6 ± 1.2 kg/m3
20783 kPa
  mass density: 1008.8 ± 1.2 kg/m3
20813 kPa
  mass density: 1008.6 ± 1.2 kg/m3
20848 kPa
  mass density: 1008.7 ± 1.2 kg/m3
20877 kPa
  mass density: 1008.7 ± 1.2 kg/m3
20908 kPa
  mass density: 1008.7 ± 1.2 kg/m3
20944 kPa
  mass density: 1008.8 ± 1.2 kg/m3
20974 kPa
  mass density: 1008.8 ± 1.2 kg/m3
21004 kPa
  mass density: 1008.8 ± 1.2 kg/m3
21035 kPa
  mass density: 1008.8 ± 1.2 kg/m3
21072 kPa
  mass density: 1008.7 ± 1.2 kg/m3
21102 kPa
  mass density: 1008.8 ± 1.2 kg/m3
21133 kPa
  mass density: 1008.9 ± 1.2 kg/m3
21170 kPa
  mass density: 1008.8 ± 1.2 kg/m3
21202 kPa
  mass density: 1009 ± 1.2 kg/m3
21233 kPa
  mass density: 1008.9 ± 1.2 kg/m3
21271 kPa
  mass density: 1008.9 ± 1.2 kg/m3
21302 kPa
  mass density: 1009 ± 1.2 kg/m3
21334 kPa
  mass density: 1009.1 ± 1.2 kg/m3
21366 kPa
  mass density: 1009 ± 1.2 kg/m3
21404 kPa
  mass density: 1009 ± 1.2 kg/m3
21436 kPa
  mass density: 1009.1 ± 1.2 kg/m3
21467 kPa
  mass density: 1009.1 ± 1.2 kg/m3
21506 kPa
  mass density: 1009.1 ± 1.2 kg/m3
21538 kPa
  mass density: 1009 ± 1.2 kg/m3
21570 kPa
  mass density: 1009.1 ± 1.2 kg/m3
21602 kPa
  mass density: 1009.2 ± 1.2 kg/m3
21640 kPa
  mass density: 1009.2 ± 1.2 kg/m3
21673 kPa
  mass density: 1009.2 ± 1.2 kg/m3
21712 kPa
  mass density: 1009.2 ± 1.2 kg/m3
21744 kPa
  mass density: 1009.1 ± 1.2 kg/m3
21778 kPa
  mass density: 1009.3 ± 1.2 kg/m3
21817 kPa
  mass density: 1009.3 ± 1.2 kg/m3
21851 kPa
  mass density: 1009.3 ± 1.2 kg/m3
21883 kPa
  mass density: 1009.4 ± 1.2 kg/m3
21916 kPa
  mass density: 1009.3 ± 1.2 kg/m3
21956 kPa
  mass density: 1009.5 ± 1.2 kg/m3
21989 kPa
  mass density: 1009.3 ± 1.2 kg/m3
22029 kPa
  mass density: 1009.4 ± 1.2 kg/m3
22063 kPa
  mass density: 1009.6 ± 1.2 kg/m3
22097 kPa
  mass density: 1009.4 ± 1.2 kg/m3
22137 kPa
  mass density: 1009.6 ± 1.2 kg/m3
22171 kPa
  mass density: 1009.6 ± 1.2 kg/m3
22206 kPa
  mass density: 1009.5 ± 1.2 kg/m3
22241 kPa
  mass density: 1009.5 ± 1.2 kg/m3
22282 kPa
  mass density: 1009.6 ± 1.2 kg/m3
22316 kPa
  mass density: 1009.7 ± 1.2 kg/m3
22351 kPa
  mass density: 1009.7 ± 1.2 kg/m3
22393 kPa
  mass density: 1009.6 ± 1.2 kg/m3
22429 kPa
  mass density: 1009.6 ± 1.2 kg/m3
22457 kPa
  mass density: 1009.7 ± 1.2 kg/m3
22500 kPa
  mass density: 1009.8 ± 1.2 kg/m3
22542 kPa
  mass density: 1009.8 ± 1.2 kg/m3
22578 kPa
  mass density: 1009.8 ± 1.2 kg/m3
22621 kPa
  mass density: 1009.9 ± 1.2 kg/m3
22658 kPa
  mass density: 1009.7 ± 1.2 kg/m3
22697 kPa
  mass density: 1009.8 ± 1.2 kg/m3
22736 kPa
  mass density: 1009.9 ± 1.2 kg/m3
22782 kPa
  mass density: 1009.8 ± 1.2 kg/m3
22818 kPa
  mass density: 1009.9 ± 1.2 kg/m3
22851 kPa
  mass density: 1010 ± 1.2 kg/m3
22882 kPa
  mass density: 1010 ± 1.2 kg/m3
22921 kPa
  mass density: 1010.1 ± 1.2 kg/m3
22951 kPa
  mass density: 1009.9 ± 1.2 kg/m3
22978 kPa
  mass density: 1010.1 ± 1.2 kg/m3
23006 kPa
  mass density: 1010 ± 1.2 kg/m3
23030 kPa
  mass density: 1010 ± 1.2 kg/m3
23059 kPa
  mass density: 1010.1 ± 1.2 kg/m3
23083 kPa
  mass density: 1010.2 ± 1.2 kg/m3
23108 kPa
  mass density: 1010.1 ± 1.2 kg/m3
23132 kPa
  mass density: 1010.2 ± 1.2 kg/m3
23156 kPa
  mass density: 1010.1 ± 1.2 kg/m3
23180 kPa
  mass density: 1010.1 ± 1.2 kg/m3
23209 kPa
  mass density: 1010.1 ± 1.2 kg/m3
23233 kPa
  mass density: 1010.2 ± 1.2 kg/m3
23262 kPa
  mass density: 1010.2 ± 1.2 kg/m3
23287 kPa
  mass density: 1010.1 ± 1.2 kg/m3
23311 kPa
  mass density: 1010.3 ± 1.2 kg/m3
23336 kPa
  mass density: 1010.3 ± 1.2 kg/m3
23364 kPa
  mass density: 1010.3 ± 1.2 kg/m3
23389 kPa
  mass density: 1010.3 ± 1.2 kg/m3
23414 kPa
  mass density: 1010.4 ± 1.2 kg/m3
23444 kPa
  mass density: 1010.3 ± 1.2 kg/m3
23468 kPa
  mass density: 1010.3 ± 1.2 kg/m3
23497 kPa
  mass density: 1010.4 ± 1.2 kg/m3
23523 kPa
  mass density: 1010.3 ± 1.2 kg/m3
23547 kPa
  mass density: 1010.4 ± 1.2 kg/m3
23572 kPa
  mass density: 1010.4 ± 1.2 kg/m3
23603 kPa
  mass density: 1010.4 ± 1.2 kg/m3
23627 kPa
  mass density: 1010.5 ± 1.2 kg/m3
23657 kPa
  mass density: 1010.5 ± 1.2 kg/m3
23683 kPa
  mass density: 1010.5 ± 1.2 kg/m3
23708 kPa
  mass density: 1010.5 ± 1.2 kg/m3
23738 kPa
  mass density: 1010.6 ± 1.2 kg/m3
23763 kPa
  mass density: 1010.6 ± 1.2 kg/m3
23790 kPa
  mass density: 1010.6 ± 1.2 kg/m3
23820 kPa
  mass density: 1010.5 ± 1.2 kg/m3
23846 kPa
  mass density: 1010.7 ± 1.2 kg/m3
23871 kPa
  mass density: 1010.6 ± 1.2 kg/m3
23902 kPa
  mass density: 1010.5 ± 1.2 kg/m3
23928 kPa
  mass density: 1010.7 ± 1.2 kg/m3
23954 kPa
  mass density: 1010.7 ± 1.2 kg/m3
23985 kPa
  mass density: 1010.6 ± 1.2 kg/m3
24011 kPa
  mass density: 1010.6 ± 1.2 kg/m3
24037 kPa
  mass density: 1010.7 ± 1.2 kg/m3
24063 kPa
  mass density: 1010.8 ± 1.2 kg/m3
24094 kPa
  mass density: 1010.9 ± 1.2 kg/m3
24121 kPa
  mass density: 1010.7 ± 1.2 kg/m3
24148 kPa
  mass density: 1010.8 ± 1.2 kg/m3
24180 kPa
  mass density: 1010.8 ± 1.2 kg/m3
24206 kPa
  mass density: 1010.7 ± 1.2 kg/m3
24237 kPa
  mass density: 1010.8 ± 1.2 kg/m3
24264 kPa
  mass density: 1010.9 ± 1.2 kg/m3
24291 kPa
  mass density: 1010.8 ± 1.2 kg/m3
24318 kPa
  mass density: 1010.9 ± 1.2 kg/m3
24350 kPa
  mass density: 1010.8 ± 1.2 kg/m3
24378 kPa
  mass density: 1010.9 ± 1.2 kg/m3
24405 kPa
  mass density: 1011 ± 1.2 kg/m3
24437 kPa
  mass density: 1010.9 ± 1.2 kg/m3
24464 kPa
  mass density: 1010.9 ± 1.2 kg/m3
24497 kPa
  mass density: 1011.1 ± 1.2 kg/m3
24525 kPa
  mass density: 1011 ± 1.2 kg/m3
24552 kPa
  mass density: 1011 ± 1.2 kg/m3
24580 kPa
  mass density: 1011.1 ± 1.2 kg/m3
24612 kPa
  mass density: 1011 ± 1.2 kg/m3
24640 kPa
  mass density: 1011 ± 1.2 kg/m3
24667 kPa
  mass density: 1011.2 ± 1.2 kg/m3
24701 kPa
  mass density: 1011.1 ± 1.2 kg/m3
24728 kPa
  mass density: 1011.1 ± 1.2 kg/m3
24761 kPa
  mass density: 1011.1 ± 1.2 kg/m3
24789 kPa
  mass density: 1011.2 ± 1.2 kg/m3
24817 kPa
  mass density: 1011.2 ± 1.2 kg/m3
24845 kPa
  mass density: 1011.1 ± 1.2 kg/m3
24879 kPa
  mass density: 1011.3 ± 1.2 kg/m3
24908 kPa
  mass density: 1011.2 ± 1.2 kg/m3
24936 kPa
  mass density: 1011.2 ± 1.2 kg/m3
24970 kPa
  mass density: 1011.3 ± 1.2 kg/m3
24999 kPa
  mass density: 1011.2 ± 1.2 kg/m3
25027 kPa
  mass density: 1011.3 ± 1.2 kg/m3
25056 kPa
  mass density: 1011.3 ± 1.2 kg/m3
25091 kPa
  mass density: 1011.3 ± 1.2 kg/m3
25119 kPa
  mass density: 1011.3 ± 1.2 kg/m3
25148 kPa
  mass density: 1011.4 ± 1.2 kg/m3
25182 kPa
  mass density: 1011.4 ± 1.2 kg/m3
25212 kPa
  mass density: 1011.5 ± 1.2 kg/m3
25247 kPa
  mass density: 1011.4 ± 1.2 kg/m3
25278 kPa
  mass density: 1011.4 ± 1.2 kg/m3
25307 kPa
  mass density: 1011.4 ± 1.2 kg/m3
25336 kPa
  mass density: 1011.4 ± 1.2 kg/m3
